Results published in patent US5712160A, “Method of stimulating growth using neurotrophic peptides” (Board of Regents, The University of Texas System, priority 1995, dated 1998).
“And” between values parts separate entries of the source, which are not always exact repeats. Equal values may be shown once. “Also recorded” adds a separate entry of the source. Residues, ends and D or L forms follow the SMILES beside them. No end group written: not given here.

Assays:
[1] = tested on: PC12 cells; type: cell-based, rat
Protocol: Cell Culture. Stock cultures of PC12 cells are maintained in a medium consisting of RPMI 1640 supplemented with (v/v) 5% fetal calf serum and 5% horse serum ("complete medium"). At alternate feedings, media containing 1% PSN antibiotic mixture is used, consisting of 5 mg penicillin +5 mg streptomycin +10 mg neomycin/ml. Cells are grown in a humidified atmosphere containing 5% CO2. Cells are split once weekly in a 1:12 ratio by vigorous shaking and trituration. For experiments, PC12 cells are dislodged by shaking, centrifuged at 800×g, diluted in Puck's saline, counted in a hemocytometer, and plated on poly-D-lysine coated polystyrene tissue culture pates. For experiments to be performed in defined, serum-free medium, a modification of the N1 medium of Bottenstein et al. is used consisting of RPMI 1640 supplemented with insulin 5 ug/ml, transferrin 5 ug/ml, 20 nM progesterone, 100 μM putrescine, and 30 nM sodium selenite. Cells are plated in complete medium and allowed to attach overnight before washing twice with serum-free RPMI and addition of N1 medium. For experiments. examining effects of NGF on cell survival following serum deprivation, cells are plated in complete medium and allowed to attach overnight. Cells are then washed once with RPMI containing sheep anti-mouse beta-NGF to remove any residual NGF from serum. After washing once in RPMI, cells receive varying doses of NGF in RPMI. Media is changed on the third day of serum deprivation. On the fourth day, viability is assessed by ^35 S-methionine incorporation into trichloroacetic acid precipitable proteins. The effects of NGF on the response of PC12 cells to peptides is also examined by reduction of the dye 3, (4,5-dimethylthiazol-2-yl)-2,5-diphenyl-tetrazolium (MTT). For experiments using MTT, cells (1×10^4) are plated on poly-D-lysine coated 6 mm wells (96 well plates). Cells are allowed to attach overnight before addition of NGF and/or peptide. After 24 hr, media is removed and replaced with RPMI 1640 medium without serum. Following a 24 hour recovery period, each well is incubated with MTT for 4 hours at 37° C. Formaxan crystals are then solubilized in isopropanol containing 0.04N HCl and plates read on an ELISA reader using test and reference wavelengths of 570 and 630 nm, respectively. All statistics are performed by computer-assisted methods using the Number Cruncher for Statistical Sciences (NCSS) package. […]
The survival of PC12 cells was measured as a function of the amount of peptide P4.
Cells were plated out as mentioned above in RPMI 1640 without serum but in the presence of a fixed amount of NGF with varying amounts of peptide from 0.1 to 100 ug/ml (day one). […] The incorporation of ^35 S-Met into protein was determined by TCA precipitation and protein assay.

[2] = tested on: NGF receptor on PC12 cells
Protocol: Competitive binding assay. The following method of binding assay was carried out: precoat the 24-well plates were precoated with cytochrome C and the PC12 cells plated overnight as mentioned above. The ^125 I labeled NGF was added at 5 ng/ml in the presence of different doses of peptide from 4 ug/ml to 50 ug/ml. […] These peptides are very acidic and NGF is very basic.
In another experiment 24-well plates were precoated with poly-D-Lys at 0.06 mg/ml for 15 minutes and PC12 cells plated overnight at 1×10^5 cells/well in RPMI 1640 with serum conditioned media. The ^125 I-NGF was added at, e.g., 5 ng/ml, in the presence of varying amounts of peptide from 0.01 ug/ml to 50 ug/ml in Hepes buffer with 1 mg/ml BSA. The cells were incubated at rt. for 1 hour then washed with PBS three times and lysed with 0.5N NaOH. The radioactivity was then measured. Protein concentrations of the aliquots were determined by Lowry assay.

[3] = biological target: NGFR-I; settings: high affinity, low capacity binding site; read-out: equilibrium dissociation constant (Kd) of NGF binding; cited from earlier work
[4] = biological target: T1, NGFR-II (Homo sapiens, UniProt P08138); settings: low affinity, high capacity binding site; read-out: equilibrium dissociation constant (Kd) of NGF binding; cited from earlier work
T1 sequence (P08138 29-427): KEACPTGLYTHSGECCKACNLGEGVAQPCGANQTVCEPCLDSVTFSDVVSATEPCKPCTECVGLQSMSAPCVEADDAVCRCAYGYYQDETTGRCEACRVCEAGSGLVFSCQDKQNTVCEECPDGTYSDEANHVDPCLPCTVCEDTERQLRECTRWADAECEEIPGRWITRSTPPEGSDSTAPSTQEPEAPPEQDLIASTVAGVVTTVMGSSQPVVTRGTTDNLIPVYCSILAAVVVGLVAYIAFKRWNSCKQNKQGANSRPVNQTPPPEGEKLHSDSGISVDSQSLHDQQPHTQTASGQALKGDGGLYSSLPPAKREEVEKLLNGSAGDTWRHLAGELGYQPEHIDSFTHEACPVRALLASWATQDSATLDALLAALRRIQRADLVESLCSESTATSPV

[5] = tested on: PC12 cells transplanted into rat cortex; experiment: Transplant of pretreated PC12 cells into lesioned rat brain, NGF receptor immunohistochemistry (Ig192); type: in vivo; settings: cells treated in vitro two weeks; rat cortex stab wound; two weeks after transplant
Protocol: PC12 cells were treated with nerve growth factor (NGF) or peptide P4 in vitro for two weeks. The cells were then transplanted into a rat cortex at the site of the stab wound or 6-hydroxy dopamine-induced lesion. Two weeks after the transplant of the P12 cells, the animal brain was processed for immunohistochemistry by staining with monoclonal antibody to NGF receptor (Ig192). […] The stab-wound lesions carried out by inserting a 24 gauge needle into a stereotoxicly fixed animal so as to lesion motor cortex. Cells were then deposited with the same needle into the wound cavity.
The 6-hydroxydopamine lesions were carried out by injecting […] stereotoxicly into striatum with a needle two weeks prior to transplantation and/or treatment of animals.

[6] = biological target: labelled NGF (Homo sapiens, UniProt P01138); experiment: Binding of labelled NGF to peptide fixed on a membrane disc/filter
Protocol: Membrane discs were placed into wells of 96 well plate. Peptide (for example 265 ng/ul) was spotted on each disc. Series dilutions of peptide were used to assure the binding. The disc was dried at 37° C. (or 40° C.) for 1 hour. […] 4% BSA TBS was added to each well. An amount of labelled NGF was added to each well, followed by incubation in 4% BSA TBS. Each disc was washed 4 times with 200 ul TBS (5 minute interval). The discs were transferred to counting vial and counted.
Peptide P4 was attached to a solid matrix at various concentrations and the binding of labeled NGF measured to these various concentrations of bound P4. It is noted that an apparent maximal binding was achieved when about 3 μg of peptide P4 were bound. FIG. 4 illustrates how differing amounts of peptide bound differing amounts of labelled NGF. Here the peptide is fixed to a filter in varying amounts, then exposed to constant amounts of labelled NGF and washed extensively to displace unspecifically bound radioactivity. […] The specific augmentation of NGF effects may thus be understood when small amounts of peptide are added.

labelled NGF, sequence (P01138 122-241): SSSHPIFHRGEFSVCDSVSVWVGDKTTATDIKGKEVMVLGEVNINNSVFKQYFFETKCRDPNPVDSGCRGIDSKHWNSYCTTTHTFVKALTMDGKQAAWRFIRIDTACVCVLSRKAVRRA

## Tyr--Cys--Gln--Asp--Lys--Gln--Asn--Thr--Val--Cys--Glu--Glu--Cys--Pro--Glu--OH (YCQDKQNTVCEECPE-OH; cysteine pairing not given here) [P5]
[1]; in the presence of 0.5 ng/ml NGF
  PC12 cell survival during serum deprivation (FIG. 6): enhancement of cell survival

## NGF: Nerve growth factor, a neurotrophic protein; only the β-NGF subunit has nerve growth promoting activity
[2]; 10 micrograms unlabeled NGF or peptide, various concentrations of free labeled NGF
  displacement of labeled NGF from PC12 cells (FIG. 1): more effective in displacing labeled NGF than most of the synthetic peptides
[3]
  Kd: ~0.01 nM and 0.01 nM
[4]
  Kd: ~1 nM and 1 nM

## CC(C)[C@H](NC(=O)[C@@H](NC(=O)[C@H](CC(N)=O)NC(=O)[C@H](CCC(N)=O)NC(=O)[C@H](CCCCN)NC(=O)[C@H](CC(=O)O)NC(=O)[C@H](CCC(N)=O)NC(=O)[C@@H](N)CS)[C@@H](C)O)C(=O)N[C@@H](CS)C(=O)N[C@@H](CCC(=O)O)C(=O)N[C@@H](CCC(=O)O)C(=O)N[C@@H](CS)C(=O)N1CCC[C@H]1C(=O)N[C@@H](CCC(=O)O)C(=O)O [P4, Cys--Gln--Asp--Lys--Gln--Asn--Thr--Val--Cys--Glu--Glu--Cys--Pro--Glu--OH] (H-CQDKQNTVCEECPE-OH; N-terminus assumed)
[1]; NGF concentrations of 0.1 to 10 ng/ml
  PC12 cell protein synthesis activity (FIG. 6B): trophic effects
[1]; in the presence of 2 ng/ml NGF
  peptide concentration at maximal PC12 cell survival (FIG. 3): 5 µg
[1]; peptide 0.1 ug/ml, serum-free, fixed amount of NGF, day four
  increase in protein synthesized (35S-Met incorporation): 20%
[2]; lower peptide concentrations measured (1.3 μg)
  binding of labeled NGF to PC12 cells (FIG. 5): amplified
[2]; peptide at concentrations higher than about 1.5 μg
  displacement of bound labeled NGF from PC12 cells (FIG. 5): effective in displacing bound labeled NGF
[2]; peptide within 0.01-0.1 ug/ml range, 125I-NGF 5 ng/ml, PC12 cells, 1 hour rt
  increase in binding of 125I-NGF to its receptor: 50%
[5]
  NGF receptor immunostaining of transplanted PC12 cells (FIG. 8B vs 8A): significantly greater NGF receptor; also recorded: denser accumulation of NGF receptor sites
[6]; peptide fixed to filter, constant amount of labelled NGF
  amount of bound peptide at apparent maximal binding of labeled NGF (FIG. 4): about 3 μg
[6]; varying amounts of peptide on filter, washed extensively
  binding of labelled NGF to fixed peptide: saturation indicative of specific binding of NGF to peptide
